Assay [1] deals with Prot. vulgaris ATCC 881. Description: MIC, microbroth dilution. Format: cell-based, Proteus vulgaris. The note with it: inocula 10^4 to 10^5 CFU/ml, Iso-Sensitest broth, 18-24 h, 37° C. How it is done:
(§1) MIC for Propionibacterium aches, and Bacteroides fragilis are determined by agar dilution (inocula 10^4 /10^5 CFU/spot). MIC for other organisms are determined by microbroth dilution (inocula 10^4 to 10^5 CFU/ml). Incubation times are 18-24 h, except for Haemophilus influenzae, P. acnes, B. fragilis (48 h). All organisms are incubated at 37° C.; H. influenzae is incubated in a 5% CO2 atmosphere, anaerobes in an anaerobic gas mixture. Media used are: Iso-Sensitest broth (Oxoid) (Staphylococci, Streptococcus faecalis, Escherichia coli, Proteus vulgaris; brain heart infusion broth (Difco)+1% Supplement C (Difco) (H. influenzae); The minimal inhibitory concentrations (MIC, microgram/ml) for some microorganisms are reported below in Table VII.
For orientation: Dilution methods test growth across graded concentrations, often in twofold steps.

For assay [2], the system named is Prop. acnes L1014 ATCC 6919. The assay can be described thus: MIC, agar dilution. Conditions: inocula 10^4 /10^5 CFU/spot, 48 h, 37° C., anaerobic gas mixture. Format: cell-based, P. acnes. How it is done:
as §1
On the technique in general: Agar dilution tests growth on a series of plates holding different concentrations.

For assay [3], the system named is Bact. fragilis L1010 ATCC 23745. The assay can be described thus: MIC, agar dilution. Format: cell-based, Bacteroides fragilis. Conditions: inocula 10^4 /10^5 CFU/spot, 48 h, 37° C., anaerobic gas mixture. As to the method: as §1
Assay [4] concerns Haemophilus Influenzae type B. The assay can be described thus: MIC, microbroth dilution. Format: cell-based. Conditions: brain heart infusion broth +1% Supplement C, 48 h, 37° C., 5% CO2. As to the method: as §1
For assay [5], the system named is Staph. haemolyticus L602. The assay can be described thus: MIC, microbroth dilution. Conditions: inocula 10^4 to 10^5 CFU/ml, Iso-Sensitest broth, 18-24 h, 37° C. Format: cell-based. How it is done:
as §1

Assay [6] has as its system Staph. aureus L165 Tour. Description: MIC, microbroth dilution. Format: cell-based. The note with it: inocula 10^4 to 10^5 CFU/ml, Iso-Sensitest broth, 18-24 h, 37° C. As to the method: as §1
The test system of assay [7] is Strep. pneumoniae L44 UC41. The assay can be described thus: MIC, microbroth dilution. Type of assay: cell-based. Conditions: inocula 10^4 to 10^5 CFU/ml, 18-24 h, 37° C. How it is done: as §1
Assay [8] concerns Staph. epidermidis L147 ATCC 12228. The assay can be described thus: MIC, microbroth dilution. Type of assay: cell-based. Conditions: inocula 10^4 to 10^5 CFU/ml, Iso-Sensitest broth, 18-24 h, 37° C. As to the method:
as §1

Assay [9] deals with Strep. faecalis L149 ATCC 7080. The assay can be described thus: MIC, microbroth dilution. Format: cell-based, Streptococcus faecalis. The note with it: inocula 10^4 to 10^5 CFU/ml, Iso-Sensitest broth, 18-24 h, 37° C. How it is done: as §1
Assay [10] deals with Esch. coli L47 SKF 12140. The assay can be described thus: MIC, microbroth dilution. Type of assay: cell-based, Escherichia coli. Conditions: inocula 10^4 to 10^5 CFU/ml, Iso-Sensitest broth, 18-24 h, 37° C. How it is done: as §1

A value given as a limit tells only on which side of the number the result lay.

Regarding `CNC(=O)CC1NC(=O)c2nc(sc2COC)C(C(C)C)NC(=O)c2csc(n2)-c2ccc(-c3nc(C(=O)NCC(=O)O)cs3)nc2-c2csc(n2)-c2csc(n2)C(C(O)c2ccccc2)NC(=O)CNC(=O)c2nc1sc2C` (stereo not shown) [Compound 1], the MIC in assay [1] is recorded as over 128 microgram/ml; in assay [2], under 0.13 microgram/ml; in [3] it was 8 microgram/ml; in assay [4], 8 microgram/ml; in assay [5], 4 microgram/ml; in assay [6], 0.5 microgram/ml. Moreover, the MIC in assay [7] was 8 microgram/ml; in assay [8], 1 microgram/ml; in [9], 0.25 microgram/ml; in assay [10], over 128 microgram/ml.

With `CNC(=O)CC1NC(=O)c2nc(sc2COC)C(C(C)C)NC(=O)c2csc(n2)-c2ccc(-c3nc(C(=O)NC(CCCN)C(=O)O)cs3)nc2-c2csc(n2)-c2csc(n2)C(C(O)c2ccccc2)NC(=O)CNC(=O)c2nc1sc2C.O=C(O)C(F)(F)F` (stereo not shown) [Compound 2], the MIC in [1] was over 128 microgram/ml; in [2] it was 0.06 microgram/ml; in [3] it was over 128 microgram/ml; in assay [4] it was over 128 microgram/ml; in assay [5] it was 16 microgram/ml; in assay [6], 0.13 microgram/ml. Besides, the MIC in [7] is reported as over 128 microgram/ml; in [8] it was 0.25 microgram/ml; in [9], 0.06 microgram/ml; in [10], over 128 microgram/ml.

As to `CNC(=O)CC1NC(=O)c2nc(sc2COC)C(C(C)C)NC(=O)c2csc(n2)-c2ccc(-c3nc(C(=O)NC(CC(C)C)C(=O)O)cs3)nc2-c2csc(n2)-c2csc(n2)C(C(O)c2ccccc2)NC(=O)CNC(=O)c2nc1sc2C` (stereo not shown) [Compound 6], the MIC in assay [1] was over 128 microgram/ml; in [2], under 0.13 microgram/ml; in assay [3] it was over 128 microgram/ml; in assay [4], 32 microgram/ml; in assay [5] it was 1 microgram/ml; in assay [6], under 0.13 microgram/ml. In addition, the MIC in assay [7] is given as 2 microgram/ml; in assay [8], 1 microgram/ml; in assay [9], under 0.13 microgram/ml; in assay [10], over 128 microgram/ml.

With `CNC(=O)CC1NC(=O)c2nc(sc2COC)C(C(C)C)NC(=O)c2csc(n2)-c2ccc(-c3nc(C(=O)NC(Cc4ccccc4)C(=O)O)cs3)nc2-c2csc(n2)-c2csc(n2)C(C(O)c2ccccc2)NC(=O)CNC(=O)c2nc1sc2C` (stereo not shown) [Compound 7], the MIC in assay [1] is on record as over 128 microgram/ml; in assay [2], under 0.13 microgram/ml; in [3], over 128 microgram/ml; in assay [4], 128 microgram/ml; in [5] it was 4 microgram/ml; in assay [6], 0.25 microgram/ml. The MIC in [7] was 4 microgram/ml; in assay [8], 0.5 microgram/ml; in assay [9] it was over 0.13 microgram/ml; in assay [10] it was over 128 microgram/ml.

As to `CNC(=O)CC1NC(=O)c2nc(sc2COC)C(C(C)C)NC(=O)c2csc(n2)-c2ccc(-c3nc(C(=O)NCCCC=CC(=O)O)cs3)nc2-c2csc(n2)-c2csc(n2)C(C(O)c2ccccc2)NC(=O)CNC(=O)c2nc1sc2C` (stereo not shown) [Compound 40], the MIC in [1] is over 128 microgram/ml; in [3] it was 4 microgram/ml; in assay [4], 1 microgram/ml; in [5], 1 microgram/ml; in assay [6] it was 0.25 microgram/ml; in [7], 1 microgram/ml. Moreover, the results for the MIC in [8], in [9] and in [10] were 0.25 microgram/ml, at most 0.13 microgram/ml and over 128 microgram/ml, respectively.

These data come from US5599791A, “Amides of antibiotic GE 2270 factors” (Gruppo Lepetit SPA, priority 1991, dated 1997).
